This test addresses T1, human RORγt (Homo sapiens, UniProt P51449).
T1 construct: the full-length cDNA of human RORγt; expressed in transfected cells; host or cells: COS-7 (monkey kidney)
T1 sequence (P51449 1-497 isoform P51449-2): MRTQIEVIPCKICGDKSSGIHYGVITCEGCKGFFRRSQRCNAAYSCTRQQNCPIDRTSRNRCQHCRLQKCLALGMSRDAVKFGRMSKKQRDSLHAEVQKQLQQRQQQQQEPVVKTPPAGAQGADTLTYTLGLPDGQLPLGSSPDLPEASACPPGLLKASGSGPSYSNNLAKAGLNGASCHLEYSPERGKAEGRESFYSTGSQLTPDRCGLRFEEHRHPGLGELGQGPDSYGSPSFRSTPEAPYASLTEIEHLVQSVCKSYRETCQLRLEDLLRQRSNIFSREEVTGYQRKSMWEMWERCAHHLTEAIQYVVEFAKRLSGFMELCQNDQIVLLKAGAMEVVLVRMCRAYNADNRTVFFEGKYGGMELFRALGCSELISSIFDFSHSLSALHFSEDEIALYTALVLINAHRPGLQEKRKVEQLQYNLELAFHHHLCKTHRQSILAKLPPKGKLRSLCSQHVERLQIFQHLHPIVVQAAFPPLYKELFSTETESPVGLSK
The test can be described thus: RORE Luciferase/RORγt transactivation assay. It counts as cell-based. Conditions: COS-7 cells transfected with human IL-17 promoter luciferase reporter and RORγt plasmid; 20 h with compound; read-out: IC50, RORγt activity inhibition. How it is done: It is well known that RORγ binds to a conserved non-coding sequence (CNS) enhancer element in the IL-17 promoter.
Culture medium was changed every 2 days.
The 4.3 Kb human IL-17 promoter containing the RORγ-specific CNS enhancer element was PCR amplified from human genomic DNA and cloned into a pGL3-TKLuc2Cp reporter plasmid.
The luciferase reporter plasmid and the RORγt overexpression plasmid were transfected into COS-7 cell line using 4 μLJetPEI™/μg of DNA. Briefly, 150 ng of DNA (ration ½ between RORE-Tk Luc2Cp and cDNA RORγt or the empty vector for the negative control) was served to transfect adherent COS-7 cells in a […] culture flask, in complete medium (see cos-7 cell line culture).
Cells were then detached (using trypsin) and washed by centrifugation at 300 g for 10 minutes. Cell pellet was resuspended in serum free/phenol red free DMEM and seeded in 384 well plates at a density of 10000 cells/well and then incubated for 4 h at 37° C.
Compounds were dissolved in 100% DMSO to obtain 10 mM stock solutions. For each compound, test concentrations were diluted in serum free/phenol red free DMEM using the Genesis Freedom 200™ (TECAN) and added to the cells to obtain a 0.3% DMSO final concentration (in a final volume of 40 μL per well).
The luciferase activity was then measured with 40 μL/well steady-Glo Luciferase assay system (Promega, Madison, Wis.) and after incubation at room temperature for 30 minutes. The luminescence was estimated using the Ultra384 reader (TECAN). Data were collected and analyzed using GraphPad Prism software (GraphPad Software V5.02, San Diego Calif. USA). IC50 in μM and Emax in % were reported for each compound.
Turning to `Cc1ccc(C(NC(=O)C2(c3ccc4c(c3)OCO4)CC2)c2ccc(C)o2)c(C)c1` (stereo not drawn) [Cpd. 137, 1-(2H-1,3-benzodioxol-5-yl)-N-[(2,4-dimethylphenyl)(5-methylfuran-2-yl)methyl]cyclopropane-1-carboxamide], the IC50 lay in the range of 10 to 100 nM.

As to `Cc1ccc(C(NC(=O)C2(c3ccc4c(c3)OCC(=O)N4)CC2)c2ccco2)c(C)c1` (stereo not drawn) [Cpd. 139, N-[(2,4-dimethylphenyl)(furan-2-yl)methyl]-1-(3-oxo-3,4-dihydro-2H-1,4-benzoxazin-7-yl)cyclopropane-1-carboxamide], the IC50 is 10 to 100 nM.

Turning to `Cc1ccc(C(NC(=O)C2(c3ccc4c(c3)OCC(=O)N4)CC2)c2ccc(Cl)cc2)c(C)c1` (stereo not drawn) [Cpd. 140, N-[(4-chlorophenyl)(2,4-dimethylphenyl)methyl]-1-(3-oxo-3,4-dihydro-2H-1,4-benzoxazin-7-yl)cyclopropane-1-carboxamide], the IC50 is 1000 to 10000 nM.

In the case of `Cc1ccc(C(NC(=O)C2(c3ccc4c(c3)CCC4=O)CC2)c2ccc(C)o2)c(C)c1` (stereo not drawn) [Cpd. 141, N-[(2,4-dimethylphenyl)(5-methylfuran-2-yl)methyl]-1-(1-oxo-2,3-dihydro-1H-inden-5-yl)cyclopropane-1-carboxamide], the IC50 lay within 100 to 1000 nM.

In the case of `Cc1ccc(C(NC(=O)C2(c3ccc4c(c3)OCC(=O)N4)CC2)c2cccc(Cl)c2)c(C)c1` (stereo not drawn) [Cpd. 143, N-[(3-chlorophenyl)(2,4-dimethylphenyl)methyl]-1-(3-oxo-3,4-dihydro-2H-1,4-benzoxazin-7-yl)cyclopropane-1-carboxamide], the IC50 lay in the range of 10 to 100 nM.

Take `Cc1ccc(C(NC(=O)C2(c3ccc4c(n3)OCC(=O)N4)CC2)c2ccc(C)o2)c(C)c1` (stereo not drawn) [Cpd. 144, N-[(2,4-dimethylphenyl)(5-methylfuran-2-yl)methyl]-1-{2-oxo-1H,2H,3H-pyrido[2,3-b][1,4]oxazin-6-yl}cyclopropane-1-carboxamide]: the IC50 lay in the range of 10 to 100 nM.

Consider `Cc1ccc(C(NC(=O)C2(c3ccc4c(c3)OCC(=O)N4)CC2)c2ccc(Cl)o2)c(N2CCCCC2)c1` (stereo not drawn) [Cpd. 145, N-[(5-chlorofuran-2-yl)[4-methyl-2-(piperidin-1-yl)phenyl]methyl]-1-(3-oxo-3,4-dihydro-2H-1,4-benzoxazin-7-yl)cyclopropane-1-carboxamide], for which the half-maximal inhibitory concentration (IC50) was 10 to 100 nM.

For `Cc1ccc(C(NC(=O)C2(c3ccc4c(c3)C(C)(C)C(=O)N4)CC2)c2ccc(C)o2)c(C)c1` (stereo not drawn) [Cpd. 146, 1-(3,3-dimethyl-2-oxo-2,3-dihydro-1H-indol-5-yl)-N-[(2,4-dimethylphenyl)(5-methylfuran-2-yl)methyl]cyclopropane-1-carboxamide], the IC50 is 10 to 100 nM.

With `COc1ccc(C(NC(=O)C2(c3ccc4c(c3)OCS(=O)(=O)N4)CC2)c2ccc(C)o2)c(Br)c1` (stereo not drawn) [Cpd. 147, N-[(2-bromo-4-methoxyphenyl)(5-methylfuran-2-yl)methyl]-1-(2,2-dioxo-1,3-dihydro-4,2,1-benzoxathiazin-6-yl)cyclopropane-1-carboxamide], the IC50 was 10 to 100 nM.

`Cc1ccc(C(NC(=O)C2(c3ccc4c(c3)OCS(=O)(=O)N4)CC2)c2ccc(C)o2)c(N(C)C)c1` (stereo not drawn) [Cpd. 148, N-{[2-(dimethylamino)-4-methylphenyl](5-methylfuran-2-yl)methyl}-1-(2,2-dioxo-1,3-dihydro-4,2,1-benzoxathiazin-6-yl)cyclopropane-1-carboxamide]: the IC50 lay within 100 to 1000 nM.

As to `Cc1ccc(C(NC(=O)C2(c3ccc4c(c3)OCS(=O)(=O)N4)CC2)c2ccc(Cl)o2)c(C)c1` (stereo not drawn) [Cpd. 149, N-[(5-chlorofuran-2-yl)(2,4-dimethylphenyl)methyl]-1-(2,2-dioxo-1,3-dihydro-4,2,1-benzoxathiazin-6-yl)cyclopropane-1-carboxamide], the IC50 was 10 to 100 nM.

For `Cc1ccc(C(NC(=O)Cc2ccc3c(c2)OCS(=O)(=O)N3)c2ccc(C)o2)c(Br)c1` (stereo not drawn) [Cpd. 150, N-[(2-bromo-4-methylphenyl)(5-methylfuran-2-yl)methyl]-2-(2,2-dioxo-1,3-dihydro-4,2,1-benzoxathiazin-6-yl)acetamide], the IC50 was 100 to 1000 nM.

For `Cc1ccc(C(NC(=O)C2(c3ccc4c(ccn4CCC(=O)O)c3)CC2)c2ccc(C)o2)c(C)c1` (stereo not drawn) [Cpd. 152, 3-[5-(1-{[(2,4-dimethylphenyl)(5-methylfuran-2-yl)methyl]carbamoyl}cyclopropyl)-1H-indol-1-yl]propanoic acid], the IC50 was 10 to 100 nM.

With `Cc1cnc(C(NC(=O)C2(c3ccc4c(c3)OCS(=O)(=O)N4)CC2)c2ccc(C)o2)c(C)c1` (stereo not drawn) [Cpd. 153, N-[(3,5-dimethylpyridin-2-yl)(5-methylfuran-2-yl)methyl]-1-(2,2-dioxo-1,3-dihydro-4,2,1-benzoxathiazin-6-yl)cyclopropane-1-carboxamide], the IC50 fell in the range of 100 to 1000 nM.

In the case of `Cc1ccc(C(NC(=O)C2(c3ccc4c(ccn4CCC(=O)O)c3)CC2)c2ccc(C)o2)c(N2CCCCC2)c1` (stereo not drawn) [Cpd. 154, 3-{5-[1-({[4-methyl-2-(piperidin-1-yl)phenyl](5-methylfuran-2-yl)methyl}carbamoyl)cyclopropyl]-1H-indol-1-yl}propanoic acid], the IC50 was under 10 nM.

As for `Cc1ccc(C(NC(=O)C2(c3ccc4c(c3)CCC4O)CC2)c2ccc(C)o2)c(C)c1` (stereo not drawn) [Cpd. 155, N-[(2,4-dimethylphenyl)(5-methylfuran-2-yl)methyl]-1-(1-hydroxy-2,3-dihydro-1H-inden-5-yl)cyclopropane-1-carboxamide], the IC50 fell in the range of 10 to 100 nM.

Turning to `Cc1ccc(C(NC(=O)C2(c3ccc4c(c3)OCC(=O)N4)CC2)c2ccc(C)o2)c(N(C)C)c1` (stereo not drawn) [Cpd. 156, N-{[2-(dimethylamino)-4-methylphenyl](5-methylfuran-2-yl)methyl}-1-(3-oxo-3,4-dihydro-2H-1,4-benzoxazin-7-yl)cyclopropane-1-carboxamide], the half-inhibitory concentration (IC50) lay in the range of 10 to 100 nM.

`Cc1ccc(C(NC(=O)C2(c3ccc4c(c3)CS(=O)(=O)N4CC3CCOCC3)CC2)c2ccc(C)o2)c(C)c1` (stereo not drawn) [Cpd. 157, N-[(2,4-dimethylphenyl)(5-methylfuran-2-yl)methyl]-1-[1-(oxan-4-ylmethyl)-2,2-dioxo-1,3-dihydro-2,1-benzothiazol-5-yl]cyclopropane-1-carboxamide]: the IC50 was under 10 nM.

For the compound `Cc1ccc(C(NC(=O)C2(c3cc(F)c4c(c3)CC(=O)N4)CC2)c2ccc(C)o2)c(C)c1` (stereo not drawn) [Cpd. 158, N-[(2,4-dimethylphenyl)(5-methylfuran-2-yl)methyl]-1-(7-fluoro-2-oxo-2,3-dihydro-1H-indol-5-yl)cyclopropane-1-carboxamide], the IC50 lay within 10 to 100 nM.

Consider `Cc1ccc(C(NC(=O)C2(c3ccc4c(c3)C(F)(F)C(=O)N4)CC2)c2ccc(C)o2)c(C)c1` (stereo not drawn) [Cpd. 159, 1-(3,3-difluoro-2-oxo-2,3-dihydro-1H-indol-5-yl)-N-[(2,4-dimethylphenyl)(5-methylfuran-2-yl)methyl]cyclopropane-1-carboxamide], for which the IC50 was in the range of 100 to 1000 nM.

In the case of `Cc1ccc(C(NC(=O)C2(c3ccc4c(c3)CS(=O)(=O)N4C)CC2)c2ccc(Cl)o2)c(C)c1` (stereo not drawn) [Cpd. 160, N-[(5-chlorofuran-2-yl)(2,4-dimethylphenyl)methyl]-1-(1-methyl-2,2-dioxo-1,3-dihydro-2,1-benzothiazol-5-yl)cyclopropane-1-carboxamide], the IC50 was 10 to 100 nM.

With `Cc1ccc(C(NC(=O)C2(c3ccc4c(c3)OCO4)CC2)c2ccc(C)o2)c(Br)c1` (stereo not drawn) [Cpd. 161, 1-(2H-1,3-benzodioxol-5-yl)-N-[(2-bromo-4-methylphenyl)(5-methylfuran-2-yl)methyl]cyclopropane-1-carboxamide], the IC50 is 100 to 1000 nM.

As to `Cc1ccc(C(NC(=O)C2(c3ccc4c(c3)CS(=O)(=O)N4CC3CCOCC3)CC2)c2ccc(C)o2)c(N2CCCCC2)c1` (stereo not drawn) [Cpd. 162, N-{[4-methyl-2-(piperidin-1-yl)phenyl](5-methylfuran-2-yl)methyl}-1-[1-(oxan-4-ylmethyl)-2,2-dioxo-1,3-dihydro-2,1-benzothiazol-5-yl]cyclopropane-1-carboxamide], the 50% inhibitory concentration (IC50) fell in the range of 10 to 100 nM.

For `Cc1ccc(C(NC(=O)C2(c3ccc4c(c3)CS(=O)(=O)N4CC3CCOCC3)CC2)c2ccc(C)o2)c(Br)c1` (stereo not drawn) [Cpd. 163, N-[(2-bromo-4-methylphenyl)(5-methylfuran-2-yl)methyl]-1-[1-(oxan-4-ylmethyl)-2,2-dioxo-1,3-dihydro-2,1-benzothiazol-5-yl]cyclopropane-1-carboxamide], the IC50 was in the range of 10 to 100 nM.

Values taken from patent US11052092B2, “N-{[2-(piperidin-1-yl)phenyl](phenyl)methyl}-2-(3-oxo-3,4-dihydro-2H-1,4-benzoxazin-7-yl)acetamide derivatives and related compounds as ROR-gamma modulators for treating autoimmune diseases” (Genfit, priority 2017, dated 2021).
